# From PubChem BioAssay AID540264 (Southern Research Specialized Biocontainment Screening …, 2011)
# pIC50: −log10 of the molar value. Values joined by “and” are separate entries in the source; they are usually repeats but may differ in a detail not shown here. Equal entries are not always repeated. Active and inactive are the calls of the source.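 The calls were made as follows: active = CPE inhibition of 50% or more; inactive = the rest.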
# What was measured:
# [1] = system: HEp-2 RSV Long CPE inhibition, luminescence; experiment: protection of HEp-2 cells from RSV killing – RSV Long, luminescence, synthesized compounds, set 11, dose response (AID 540264)
# [2] = as above; settings: HEp-2 RSV Long CPE inhibition, luminescence; at 200 µM (top of the series)
SMILES,pIC50 [1],CPE inhibition [2]
COCCCNC(=O)c1ccc(Cn2c(=O)c3ccccc3n(Cc3cccc(Br)c3)c2=O)cc1,5.67,
Cc1ccc(C)c(NC(=O)[C@@H]2CCCN2S(=O)(=O)c2cccc3cccnc23)c1,5.82 and 5.77,
COCCCNC(=O)c1ccc(Cn2c(=O)c3ccccc3n(Cc3ccccc3F)c2=O)cc1,,1.77% (inactive)
Cc1ccc(Cn2c(=O)n(Cc3ccc(C(=O)NCCCN(C)C)cc3)c(=O)c3ccccc32)cc1,5.03,
Cc1ccc(Cn2c(=O)n(Cc3ccc(C(=O)NC(C)(C)C)cc3)c(=O)c3ccccc32)cc1,5.74,
Cc1ccc(Cn2c(=O)n(Cc3ccc(C(=O)Nc4ccncc4)cc3)c(=O)c3ccccc32)cc1,5.20,
COCCCNC(=O)c1ccc(Cn2c(=O)c3ccccc3n(Cc3ccc(F)cc3)c2=O)cc1,5.30,
Cc1ccc(Cn2c(=O)n(Cc3ccc(C(=O)NCCCOC(C)C)cc3)c(=O)c3ccccc32)cc1,5.78,
COCCCNC(=O)c1ccc(Cn2c(=O)c3cc(Cl)ccc3n(Cc3ccc(C)cc3)c2=O)cc1,,5.48% (inactive)
CCOCCCNC(=O)c1ccc(Cn2c(=O)c3ccccc3n(Cc3ccc(C)cc3)c2=O)cc1,5.76,
COCCCNC(=O)c1ccc(Cn2c(=O)c3ccccc3n(Cc3ccccc3Br)c2=O)cc1,,0.32% (inactive)
